Numbers after ± are expanded uncertainties.
Test: wn = mass fraction of the nth substance listed
Conditions: 101 kPa, Liquid, Concentric cylinders viscometry

O=C([O-])[O-].[K+].[K+] [potassium carbonate] + O
viscosity [mPa·s]
Conditions	303.2 K	313.2 K	323.2 K
w1 = 0.15	1.27 ± 0.04	1.08 ± 0.04	0.92 ± 0.04
w1 = 0.2	1.43 ± 0.04	1.22 ± 0.04	1.05 ± 0.04
w1 = 0.2501	1.64 ± 0.04	1.39 ± 0.04	1.2 ± 0.04

Source: the NIST ThermoML archive (doi:10.1016/j.jct.2016.07.026)
